Results reported in ChEMBL document CHEMBL3286257, “Development of second generation EP2 antagonists with high selectivity” (Eur J Med Chem, 2014).
Converted amounts (≈) assume the structure as drawn.

Target: T1, Prostaglandin D2 receptor (Homo sapiens) (UniProt Q13258)
T1 sequence (whole entry): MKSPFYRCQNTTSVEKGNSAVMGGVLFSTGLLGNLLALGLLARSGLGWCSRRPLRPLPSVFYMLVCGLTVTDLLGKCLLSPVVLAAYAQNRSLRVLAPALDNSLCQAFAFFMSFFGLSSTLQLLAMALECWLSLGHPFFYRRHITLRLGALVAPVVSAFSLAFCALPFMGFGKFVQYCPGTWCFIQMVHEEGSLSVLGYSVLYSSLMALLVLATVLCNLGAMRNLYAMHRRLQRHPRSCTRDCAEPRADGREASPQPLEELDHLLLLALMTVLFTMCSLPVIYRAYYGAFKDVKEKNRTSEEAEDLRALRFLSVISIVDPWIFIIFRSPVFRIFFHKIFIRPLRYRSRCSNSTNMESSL
Assay: Antagonist activity at DP1 receptor (unknown origin) expressed in rat C6 cells by TR-FRET assay
Assay type: cell-based
Conditions: not given

Compound | Kb [µM]
Cc1[nH]c2ccccc2c1CCNC(=O)c1ccc(N2CCOCC2)cc1 | 7.79
Cc1cc2ccccc2n1CCNC(=O)c1ccc(N(C)C)cc1 | 6.43
CCCN(CCC)c1ccc(C(=O)NCCn2c(C)cc3ccccc32)cc1 | 3.55
Cc1cc2ccccc2n1CCNC(=O)c1ccc2c(c1)n(C)c(=O)n2C | 6.29
Cc1cc2ccccc2n1CCNC(=O)c1ccc(N2CCC(O)CC2)cc1 | 4.62
Cc1cc2ccccc2n1CCNC(=O)c1ccc(N2CCCC2)cc1 | > 10
Cc1[nH]c2ccccc2c1CCNC(=O)c1ccc(N(C)C)cc1 | 3.61
Cc1cc2ccccc2n1CCNC(=O)c1ccc(N2CCCCC2)cc1 | 2.57
Cc1cc2ccccc2n1CCNC(=O)c1ccc(N2CCN(C)CC2)c(F)c1 | 0.98

System: C6
Assay: Cytotoxicity against rat C6 cells
Assay type: cell-based
Conditions: c6

Compound | CC50 [µM]
Cc1[nH]c2ccccc2c1CCNC(=O)c1ccc(N2CCOCC2)cc1 | 311
Cc1cc2ccccc2n1CCNC(=O)c1ccc(N(C)C)cc1 | 310
CCCN(CCC)c1ccc(C(=O)NCCn2c(C)cc3ccccc32)cc1 | 332
Cc1cc2ccccc2n1CCNC(=O)c1ccc2c(c1)n(C)c(=O)n2C | 154
Cc1cc2ccccc2n1CCNC(=O)c1ccc(N2CCC(O)CC2)cc1 | 163
Cc1cc2ccccc2n1CCNC(=O)c1ccc(N2CCCC2)cc1 | 337
Cc1[nH]c2ccccc2c1CCNC(=O)c1ccc(N(C)C)cc1 | 320
Cc1cc2ccccc2n1CCNC(=O)c1ccc(N2CCCCC2)cc1 | 315
Cc1cc2ccccc2n1CCNC(=O)c1ccc(N2CCN(C)CC2)c(F)c1 | 300

System: not listed separately
Assay: Metabolic stability of the compound in human liver microsomes assessed as compound remaining at 10 uM after 60 mins
Assay type: ADME
Conditions: read-out: Stability

Compound | remaining at 1 h, 10 µM [%]
Cc1[nH]c2ccccc2c1CCNC(=O)c1ccc(N2CCOCC2)cc1 | 40
Cc1cc2ccccc2n1CCNC(=O)c1ccc(N(C)C)cc1 | < 1
CCCN(CCC)c1ccc(C(=O)NCCn2c(C)cc3ccccc32)cc1 | 5
Cc1cc2ccccc2n1CCNC(=O)c1ccc(N2CCC(O)CC2)cc1 | 31
Cc1cc2ccccc2n1CCNC(=O)c1ccc(N2CCCC2)cc1 | 1.4
Cc1[nH]c2ccccc2c1CCNC(=O)c1ccc(N(C)C)cc1 | 4
Cc1cc2ccccc2n1CCNC(=O)c1ccc(N2CCCCC2)cc1 | 21

System: not listed separately
Assay: Metabolic stability of the compound in mouse liver microsomes assessed as compound remaining at 10 uM after 30 mins
Assay type: ADME
Conditions: read-out: Stability

Compound | remaining at 0.5 h, 10 µM [%]
Cc1[nH]c2ccccc2c1CCNC(=O)c1ccc(N2CCOCC2)cc1 | 10
Cc1cc2ccccc2n1CCNC(=O)c1ccc(N(C)C)cc1 | < 1
CCCN(CCC)c1ccc(C(=O)NCCn2c(C)cc3ccccc32)cc1 | 26
Cc1cc2ccccc2n1CCNC(=O)c1ccc(N2CCC(O)CC2)cc1 | 12
Cc1cc2ccccc2n1CCNC(=O)c1ccc(N2CCCC2)cc1 | 32
Cc1[nH]c2ccccc2c1CCNC(=O)c1ccc(N(C)C)cc1 | 0
Cc1cc2ccccc2n1CCNC(=O)c1ccc(N2CCCCC2)cc1 | 18

System: not listed separately
Assay: Metabolic stability of the compound in mouse liver microsomes assessed as compound remaining at 10 uM after 60 mins
Assay type: ADME
Conditions: read-out: Stability

Compound | remaining at 1 h, 10 µM [%]
Cc1[nH]c2ccccc2c1CCNC(=O)c1ccc(N2CCOCC2)cc1 | 0.5
Cc1cc2ccccc2n1CCNC(=O)c1ccc(N(C)C)cc1 | < 1
CCCN(CCC)c1ccc(C(=O)NCCn2c(C)cc3ccccc32)cc1 | 6
Cc1cc2ccccc2n1CCNC(=O)c1ccc(N2CCC(O)CC2)cc1 | 2
Cc1cc2ccccc2n1CCNC(=O)c1ccc(N2CCCC2)cc1 | 18
Cc1[nH]c2ccccc2c1CCNC(=O)c1ccc(N(C)C)cc1 | 0
Cc1cc2ccccc2n1CCNC(=O)c1ccc(N2CCCCC2)cc1 | 7

Species: Homo sapiens
Assay: Selectivity index, ratio of KB for DP1 receptor (unknown origin) to KB for EP2 receptor (unknown origin)
Conditions: not given

Compound | Ratio
CCCN(CCC)c1ccc(C(=O)NCCn2c(C)cc3ccccc32)cc1 | 298
Cc1cc2ccccc2n1CCNC(=O)c1ccc2c(c1)n(C)c(=O)n2C | 300
Cc1cc2ccccc2n1CCNC(=O)c1ccc(N2CCC(O)CC2)cc1 | 172
Cc1cc2ccccc2n1CCNC(=O)c1ccc(N2CCCC2)cc1 | > 516
Cc1cc2ccccc2n1CCNC(=O)c1ccc(N2CCCCC2)cc1 | 273
Cc1cc2ccccc2n1CCNC(=O)c1ccc(N2CCN(C)CC2)c(F)c1 | 22

System: not listed separately
Assay: Aqueous solubility of the compound by nephelometry method
Assay type: physicochemical
Conditions: buffer

Compound | solubility kinetic [µM]
Cc1[nH]c2ccccc2c1CCNC(=O)c1ccc(N2CCOCC2)cc1 | < 25
Cc1cc2ccccc2n1CCNC(=O)c1ccc(N(C)C)cc1 | < 25
CCCN(CCC)c1ccc(C(=O)NCCn2c(C)cc3ccccc32)cc1 | < 25
Cc1cc2ccccc2n1CCNC(=O)c1ccc(N2CCC(O)CC2)cc1 | 160 (≈ 60.4 µg/mL)
Cc1cc2ccccc2n1CCNC(=O)c1ccc(N2CCCC2)cc1 | < 25
Cc1[nH]c2ccccc2c1CCNC(=O)c1ccc(N(C)C)cc1 | < 25
Cc1cc2ccccc2n1CCNC(=O)c1ccc(N2CCCCC2)cc1 | < 25

System: not listed separately
Assay: Metabolic stability of the compound in human liver microsomes assessed as compound remaining at 10 uM after 30 mins
Assay type: ADME
Conditions: read-out: Stability

Compound | remaining at 0.5 h, 10 µM [%]
Cc1[nH]c2ccccc2c1CCNC(=O)c1ccc(N2CCOCC2)cc1 | 58
Cc1cc2ccccc2n1CCNC(=O)c1ccc(N(C)C)cc1 | 7
CCCN(CCC)c1ccc(C(=O)NCCn2c(C)cc3ccccc32)cc1 | 20
Cc1cc2ccccc2n1CCNC(=O)c1ccc(N2CCC(O)CC2)cc1 | 49
Cc1cc2ccccc2n1CCNC(=O)c1ccc(N2CCCC2)cc1 | 12
Cc1[nH]c2ccccc2c1CCNC(=O)c1ccc(N(C)C)cc1 | 17
Cc1cc2ccccc2n1CCNC(=O)c1ccc(N2CCCCC2)cc1 | 42

Target: Prostaglandin E2 receptor EP4 subtype (Homo sapiens) (UniProt P35408)
Assay: Antagonist activity at EP4 receptor (unknown origin) expressed in rat C6 cells assessed as inhibition of PGE2-induced response
Assay type: cell-based
Conditions: not given

Prostaglandin E2 receptor EP4 subtype (Homo sapiens), sequence (P35408 whole entry): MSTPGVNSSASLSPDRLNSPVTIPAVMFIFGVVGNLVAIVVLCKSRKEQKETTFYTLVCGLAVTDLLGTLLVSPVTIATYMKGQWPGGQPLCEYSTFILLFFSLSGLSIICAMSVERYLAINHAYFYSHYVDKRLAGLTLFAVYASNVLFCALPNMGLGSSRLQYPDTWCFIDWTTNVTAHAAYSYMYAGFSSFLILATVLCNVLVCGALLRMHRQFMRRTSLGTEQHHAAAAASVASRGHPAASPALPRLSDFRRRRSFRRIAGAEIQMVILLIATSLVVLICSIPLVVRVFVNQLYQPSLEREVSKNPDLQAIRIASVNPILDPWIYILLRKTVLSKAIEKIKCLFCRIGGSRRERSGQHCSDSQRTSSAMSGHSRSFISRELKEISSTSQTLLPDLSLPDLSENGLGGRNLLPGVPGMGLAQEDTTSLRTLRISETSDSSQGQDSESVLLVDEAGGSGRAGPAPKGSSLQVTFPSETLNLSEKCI

Compound | Kb [µM]
Cc1[nH]c2ccccc2c1CCNC(=O)c1ccc(N2CCOCC2)cc1 | 75.6
Cc1cc2ccccc2n1CCNC(=O)c1ccc(N(C)C)cc1 | 51
CCCN(CCC)c1ccc(C(=O)NCCn2c(C)cc3ccccc32)cc1 | 15.5
Cc1cc2ccccc2n1CCNC(=O)c1ccc2c(c1)n(C)c(=O)n2C | 36.1
Cc1cc2ccccc2n1CCNC(=O)c1ccc(N2CCC(O)CC2)cc1 | 70.3
Cc1cc2ccccc2n1CCNC(=O)c1ccc(N2CCCC2)cc1 | 28.7
Cc1[nH]c2ccccc2c1CCNC(=O)c1ccc(N(C)C)cc1 | 16.4
Cc1cc2ccccc2n1CCNC(=O)c1ccc(N2CCCCC2)cc1 | 30.2
Cc1cc2ccccc2n1CCNC(=O)c1ccc(N2CCN(C)CC2)c(F)c1 | 4.76

System: not listed separately
Assay: Metabolic stability of the compound in human liver microsomes assessed as compound remaining at 10 uM after 15 mins
Assay type: ADME
Conditions: read-out: Stability

Compound | remaining at […], 10 µM [%]
Cc1[nH]c2ccccc2c1CCNC(=O)c1ccc(N2CCOCC2)cc1 | 75
Cc1cc2ccccc2n1CCNC(=O)c1ccc(N(C)C)cc1 | 27
CCCN(CCC)c1ccc(C(=O)NCCn2c(C)cc3ccccc32)cc1 | 40
Cc1cc2ccccc2n1CCNC(=O)c1ccc(N2CCC(O)CC2)cc1 | 66
Cc1cc2ccccc2n1CCNC(=O)c1ccc(N2CCCC2)cc1 | 22
Cc1[nH]c2ccccc2c1CCNC(=O)c1ccc(N(C)C)cc1 | 34
Cc1cc2ccccc2n1CCNC(=O)c1ccc(N2CCCCC2)cc1 | 67

Species: Homo sapiens
Assay: Selectivity index, ratio of KB for IP receptor (unknown origin) to KB for EP2 receptor (unknown origin)
Conditions: not given

Compound | Ratio
CCCN(CCC)c1ccc(C(=O)NCCn2c(C)cc3ccccc32)cc1 | 95
Cc1cc2ccccc2n1CCNC(=O)c1ccc2c(c1)n(C)c(=O)n2C | 1200
Cc1cc2ccccc2n1CCNC(=O)c1ccc(N2CCC(O)CC2)cc1 | 675
Cc1cc2ccccc2n1CCNC(=O)c1ccc(N2CCCC2)cc1 | 570
Cc1cc2ccccc2n1CCNC(=O)c1ccc(N2CCCCC2)cc1 | 360
Cc1cc2ccccc2n1CCNC(=O)c1ccc(N2CCN(C)CC2)c(F)c1 | 1420

System: not listed separately
Assay: Metabolic stability of the compound in mouse liver microsomes assessed as compound remaining at 10 uM after 15 mins
Assay type: ADME
Conditions: read-out: Stability

Compound | remaining at […], 10 µM [%]
Cc1[nH]c2ccccc2c1CCNC(=O)c1ccc(N2CCOCC2)cc1 | 37
Cc1cc2ccccc2n1CCNC(=O)c1ccc(N(C)C)cc1 | < 1
CCCN(CCC)c1ccc(C(=O)NCCn2c(C)cc3ccccc32)cc1 | 30
Cc1cc2ccccc2n1CCNC(=O)c1ccc(N2CCC(O)CC2)cc1 | 35
Cc1cc2ccccc2n1CCNC(=O)c1ccc(N2CCCC2)cc1 | 52
Cc1[nH]c2ccccc2c1CCNC(=O)c1ccc(N(C)C)cc1 | < 1
Cc1cc2ccccc2n1CCNC(=O)c1ccc(N2CCCCC2)cc1 | 24

Target: Prostaglandin E2 receptor EP2 subtype (Homo sapiens) (UniProt P43116)
Assay: Antagonist activity at EP2 receptor (unknown origin) expressed in rat C6 cells assessed as inhibition of PGE2-induced response
Assay type: cell-based
Conditions: not given

Prostaglandin E2 receptor EP2 subtype (Homo sapiens), sequence (P43116 whole entry): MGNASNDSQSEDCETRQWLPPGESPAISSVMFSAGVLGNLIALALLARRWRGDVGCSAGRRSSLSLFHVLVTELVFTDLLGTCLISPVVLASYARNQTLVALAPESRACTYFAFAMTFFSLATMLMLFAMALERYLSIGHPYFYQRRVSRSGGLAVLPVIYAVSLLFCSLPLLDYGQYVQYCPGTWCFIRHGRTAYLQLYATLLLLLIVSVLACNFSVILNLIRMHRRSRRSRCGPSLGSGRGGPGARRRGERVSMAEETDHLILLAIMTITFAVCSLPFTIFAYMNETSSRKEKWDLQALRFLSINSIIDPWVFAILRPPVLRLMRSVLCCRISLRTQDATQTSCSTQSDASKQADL

Compound | Kb [µM]
Cc1cc2ccccc2n1CCNC(=O)c1ccc(N(C)C)cc1 | 0.0098
CCCN(CCC)c1ccc(C(=O)NCCn2c(C)cc3ccccc32)cc1 | 0.0119
Cc1cc2ccccc2n1CCNC(=O)c1ccc2c(c1)n(C)c(=O)n2C | 0.0209
Cc1cc2ccccc2n1CCNC(=O)c1ccc(N2CCC(O)CC2)cc1 | 0.0268
Cc1cc2ccccc2n1CCNC(=O)c1ccc(N2CCCC2)cc1 | 0.0247
Cc1[nH]c2ccccc2c1CCNC(=O)c1ccc(N(C)C)cc1 | 0.0108
Cc1cc2ccccc2n1CCNC(=O)c1ccc(N2CCCCC2)cc1 | 0.0094
Cc1cc2ccccc2n1CCNC(=O)c1ccc(N2CCN(C)CC2)c(F)c1 | 0.045

Species: Homo sapiens
Assay: Selectivity index, ratio of KB for EP4 receptor (unknown origin) to KB for EP2 receptor (unknown origin)
Conditions: not given

Compound | Ratio
CCCN(CCC)c1ccc(C(=O)NCCn2c(C)cc3ccccc32)cc1 | 1320
Cc1cc2ccccc2n1CCNC(=O)c1ccc2c(c1)n(C)c(=O)n2C | 1730
Cc1cc2ccccc2n1CCNC(=O)c1ccc(N2CCC(O)CC2)cc1 | 2620
Cc1cc2ccccc2n1CCNC(=O)c1ccc(N2CCCC2)cc1 | 1160
Cc1cc2ccccc2n1CCNC(=O)c1ccc(N2CCCCC2)cc1 | 3210
Cc1cc2ccccc2n1CCNC(=O)c1ccc(N2CCN(C)CC2)c(F)c1 | 106

Target: Prostacyclin receptor (Homo sapiens) (UniProt P43119)
Assay: Antagonist activity at IP receptor (unknown origin) expressed in rat C6 cells by TR-FRET assay
Assay type: cell-based
Conditions: not given

Prostacyclin receptor (Homo sapiens), sequence (P43119 whole entry): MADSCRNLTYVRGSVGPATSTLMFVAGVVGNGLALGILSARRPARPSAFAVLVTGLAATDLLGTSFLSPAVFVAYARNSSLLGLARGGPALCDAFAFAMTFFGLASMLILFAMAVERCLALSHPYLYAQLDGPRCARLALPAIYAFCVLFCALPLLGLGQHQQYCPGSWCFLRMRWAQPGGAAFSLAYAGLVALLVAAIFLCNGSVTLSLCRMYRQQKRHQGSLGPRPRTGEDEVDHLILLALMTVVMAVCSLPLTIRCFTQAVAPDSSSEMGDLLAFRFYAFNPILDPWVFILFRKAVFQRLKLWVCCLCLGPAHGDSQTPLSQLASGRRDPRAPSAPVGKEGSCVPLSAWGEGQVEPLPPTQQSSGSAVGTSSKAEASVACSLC

Compound | Kb [µM]
Cc1[nH]c2ccccc2c1CCNC(=O)c1ccc(N2CCOCC2)cc1 | 85
Cc1cc2ccccc2n1CCNC(=O)c1ccc(N(C)C)cc1 | 4.7
CCCN(CCC)c1ccc(C(=O)NCCn2c(C)cc3ccccc32)cc1 | 1.12
Cc1cc2ccccc2n1CCNC(=O)c1ccc2c(c1)n(C)c(=O)n2C | 25.2
Cc1cc2ccccc2n1CCNC(=O)c1ccc(N2CCC(O)CC2)cc1 | 18.1
Cc1cc2ccccc2n1CCNC(=O)c1ccc(N2CCCC2)cc1 | 14.2
Cc1[nH]c2ccccc2c1CCNC(=O)c1ccc(N(C)C)cc1 | 63.1
Cc1cc2ccccc2n1CCNC(=O)c1ccc(N2CCCCC2)cc1 | 3.4
Cc1cc2ccccc2n1CCNC(=O)c1ccc(N2CCN(C)CC2)c(F)c1 | 64

System: EP2 receptor
Assay: Therapeutic index, ratio of CC50 for rat C6 cells to KB for EP2 receptor (unknown origin)
Assay type: cell-based
Conditions: read-out: TI

Compound | selectivity ratio
Cc1[nH]c2ccccc2c1CCNC(=O)c1ccc(N2CCOCC2)cc1 | 10900
CCCN(CCC)c1ccc(C(=O)NCCn2c(C)cc3ccccc32)cc1 | 28100
Cc1cc2ccccc2n1CCNC(=O)c1ccc2c(c1)n(C)c(=O)n2C | 7370
Cc1cc2ccccc2n1CCNC(=O)c1ccc(N2CCC(O)CC2)cc1 | 6080
Cc1cc2ccccc2n1CCNC(=O)c1ccc(N2CCCC2)cc1 | 16100
Cc1cc2ccccc2n1CCNC(=O)c1ccc(N2CCCCC2)cc1 | 33500
Cc1cc2ccccc2n1CCNC(=O)c1ccc(N2CCN(C)CC2)c(F)c1 | 6660
